This note sets out measurements from patent US5047397A, “Linear analogs of atrial natriuretic peptides” (California Biotechnology Inc., priority 1988, dated 1991).

*1 amine or outer side, *2 acyl side, *3 side chain or, on linkers, in order; H or OH if unused. Where a SMILES comes first, the peptide text is derived from it. [ ]: non-standard residue; d: D form. The star is where a group is joined. X2 = N=C(N)NCCC[C@@H](C(=O)[*:2])N(CCc1ccc(N[*:3])cc1)[*:1]; X8 = N=C(N)NCCC[C@@H](C(=O)[*:2])N(CC1CCN([*:3])CC1)[*:1]; Butyryl(4-indol-3-yl) = O=C(CCCc1c[nH]c2ccccc12)*; Acetyl(2-naphthyloxy) = O=C(COc1ccc2ccccc2c1)*; X10 = O=C(CNc1ccc(C(=O)*)cc1)c1ccc2ccccc2c1; Acetyl(2-naphthyl) = O=C(Cc1ccc2ccccc2c1)*; X4 = O=C(Cc1ccc(NCCc2ccc3ccccc3c2)cc1)*; NH(2S-methylbutyl) = CC[C@H](C)CN*; 2Naphthoyl = O=C(c1ccc2ccccc2c1)*; X1 = O=C(Cc1ccc(N[*:1])cc1)[*:2]; 4Amb = NCc1ccc(C(=O)O)cc1; 4Abz = Nc1ccc(C(=O)O)cc1; Orn = NCCC[C@H](N)C(=O)O; X9 = O=C(C(Cl)c1ccccc1)*; Aoc = NCCCCCCCC(=O)O; Inp = O=C(O)C1CCNCC1

This assay addresses T1, specific ANP receptor sites on BASM or BAE cells (Bos taurus, UniProt P10730).
T1 construct: specific receptor sites on BASM or BAE cells; endogenous in cells; host or cells: cultured BASM and BAE cells
T1 sequence (P10730 42-537): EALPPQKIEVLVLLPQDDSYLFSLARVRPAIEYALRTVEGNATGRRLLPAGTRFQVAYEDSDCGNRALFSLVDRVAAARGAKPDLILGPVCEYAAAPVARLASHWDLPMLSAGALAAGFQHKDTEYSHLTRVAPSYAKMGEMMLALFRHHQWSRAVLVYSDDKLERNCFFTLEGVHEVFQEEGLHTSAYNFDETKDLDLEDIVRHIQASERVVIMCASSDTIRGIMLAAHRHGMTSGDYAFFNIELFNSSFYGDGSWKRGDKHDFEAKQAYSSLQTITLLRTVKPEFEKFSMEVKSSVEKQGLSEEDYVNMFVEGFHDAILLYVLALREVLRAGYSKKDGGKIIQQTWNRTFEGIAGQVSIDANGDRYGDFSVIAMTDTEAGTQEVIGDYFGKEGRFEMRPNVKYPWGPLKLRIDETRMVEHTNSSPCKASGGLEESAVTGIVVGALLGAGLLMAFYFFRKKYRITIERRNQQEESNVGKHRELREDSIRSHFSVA
As to the kind of experiment: Competitive displacement receptor binding of (125I)-rANP(126-150) on cultured cells. Also noted: species or system bovine. The following applies: concentration of unlabeled peptide displacing 50% of maximal binding of 0.5 nM (125I)-rANP(126-150); BASM or BAE cells. The text has this: Analogous "competitive displacement" receptor binding assays are considered commonplace in the art for examining specific ligand-receptor interactions.
Assuming these ANP analogs act at one or more ANP receptor sites, then increased receptor affinity should reflect increased biological potency.
In the case of `CC[C@H](C)[C@H](NC(=O)[C@H](CCCNC(=N)N)NC(=O)[C@H](CC(=O)O)NC(=O)[C@@H](NC(=O)[C@H](CCCNC(=N)N)NC(=O)CNC(=O)CCCc1c[nH]c2ccccc12)[C@@H](C)CC)C(=O)NCC(=O)N[C@@H](C)C(N)=O` [AP597, (3-IB)--G--R--I--D--R--I--G--A--NH2] ({Butyryl(4-indol-3-yl)}-GRIDRIGA-NH2), the “Ki(app)” value was 9.3 nM.

On to `CC[C@H](C)[C@H](NC(=O)[C@H](CCCNC(=N)N)NC(=O)[C@H](CC(=O)O)NC[C@@H](NC(=O)[C@H](CCCNC(=N)N)NC(=O)Cc1ccc(NC(=O)Cc2ccc3ccccc3c2)cc1)[C@@H](C)CC)C(N)=O` [AP701], for which the “Ki(app)” value amounted to 60.3 nM.

As for `CC[C@H](C)[C@H](NC(=O)[C@H](CCCNC(=N)N)NC(=O)[C@H](CC(=O)O)NC(=O)[C@@H](NC(=O)[C@H](CCCNC(=N)N)NCC1CCN(C(=O)Cc2ccc3ccccc3c2)CC1)[C@@H](C)CC)C(N)=O` [AP704] (H-[X8](Acetyl(2-naphthyl))IDRI-NH2), the “Ki(app)” value worked out at 17.0 nM.

With `CC[C@H](C)[C@H](NC(=O)[C@H](CCCNC(=N)N)NC(=O)[C@H](CC(=O)O)NC(=O)[C@@H](NC(=O)[C@H](CCCNC(=N)N)NC(=O)CCCCCCCNC(=O)COc1ccc2ccccc2c1)[C@@H](C)CC)C(N)=O` [AP789, (2-NOA)--NH--(CH2)7 --CO--R--I--D--R--I--NH2] ({Acetyl(2-naphthyloxy)-Aoc}-RIDRI-NH2), the “Ki(app)” value is 380 nM.

For the compound `CC[C@H](C)[C@H](NC(=O)[C@H](CCCNC(=N)N)NC(=O)[C@H](CC(=O)O)NC(=O)[C@@H](NC(=O)[C@H](CCCNC(=N)N)NC(=O)Cc1ccc(NC(=O)c2ccc3ccccc3c2)cc1)[C@@H](C)CC)C(N)=O` [AP790] (2Naphthoyl-[X1]RIDRI-NH2), the “Ki(app)” value was found to be 5.2 nM.

Turning to `CC[C@H](C)[C@H](NC(=O)[C@H](CCCNC(=N)N)NC(=O)[C@H](CC(=O)O)NC(=O)[C@@H](NC(=O)[C@H](CCCNC(=N)N)NC(=O)c1ccc(NC(=O)COc2ccc3ccccc3c2)cc1)[C@@H](C)CC)C(N)=O` [AP791] ({Acetyl(2-naphthyloxy)-4Abz}-RIDRI-NH2), the “Ki(app)” value came to 31.1 nM.

As for `CC[C@H](C)[C@H](NC(=O)[C@H](CCCNC(=N)N)NC(=O)[C@H](CC(=O)O)NC(=O)[C@@H](NC(=O)[C@H](CCCNC(=N)N)NC(=O)Cc1ccc(NC(=O)COc2ccc3ccccc3c2)cc1)[C@@H](C)CC)C(N)=O` [AP792] ({Acetyl(2-naphthyloxy)}-[X1]RIDRI-NH2), the “Ki(app)” value is given as 6.3 nM.

Regarding `CC[C@H](C)[C@H](NC(=O)[C@H](CCCNC(=N)N)NC(=O)[C@H](CC(=O)O)NC(=O)[C@@H](NC(=O)[C@H](CCCNC(=N)N)NC(=O)C1CCN(C(=O)COc2ccc3ccccc3c2)CC1)[C@@H](C)CC)C(N)=O` [AP793] ({Acetyl(2-naphthyloxy)-Inp}-RIDRI-NH2), the “Ki(app)” value turned out to be 76.8 nM.

`CC[C@H](C)[C@H](NC(=O)[C@H](CCCNC(=N)N)NC(=O)[C@H](CC(=O)O)NC(=O)[C@@H](NC(=O)[C@H](CCCNC(=N)N)NC(=O)c1ccc(NCC(=O)c2ccc3ccccc3c2)cc1)[C@@H](C)CC)C(N)=O` [AP794] (X10-RIDRI-NH2): the “Ki(app)” value was 13.1 nM.

Regarding `CC[C@H](C)[C@H](NC(=O)[C@H](CCCNC(=N)N)NC(=O)[C@H](CC(=O)O)NC(=O)[C@@H](NC(=O)[C@H](CCCNC(=N)N)NC(=O)c1ccc(CNC(=O)c2ccc3ccccc3c2)cc1)[C@@H](C)CC)C(N)=O` [AP795] ({2Naphthoyl-4Amb}-RIDRI-NH2), the “Ki(app)” value was 11.9 nM.

Turning to `CC[C@H](C)[C@H](NC(=O)[C@H](CCCNC(=N)N)NC(=O)[C@H](CC(=O)O)NC(=O)[C@@H](NC(=O)[C@H](CCCNC(=N)N)NC(=O)Cc1ccc(NCCc2ccc3ccccc3c2)cc1)[C@@H](C)CC)C(N)=O` [AP796] (X4-RIDRI-NH2), the “Ki(app)” value is 27.3 nM.

With `CC[C@H](C)[C@H](NC(=O)[C@H](CCCNC(=N)N)NC(=O)[C@H](CC(=O)O)NC(=O)[C@@H](NC(=O)[C@H](CCCCN)NC(=O)Cc1ccc(NC(=O)COc2ccc3ccccc3c2)cc1)[C@@H](C)CC)C(N)=O` [AP798] ({Acetyl(2-naphthyloxy)}-[X1]KIDRI-NH2), the “Ki(app)” value came out at 3.95 nM.

For `CC[C@H](C)[C@H](NC(=O)[C@H](CCCCN)NC(=O)[C@H](CC(=O)O)NC(=O)[C@@H](NC(=O)[C@H](CCCNC(=N)N)NC(=O)Cc1ccc(NC(=O)Cc2ccc3ccccc3c2)cc1)[C@@H](C)CC)C(N)=O` [AP799] ({Acetyl(2-naphthyl)}-[X1]RIDKI-NH2), the “Ki(app)” value came to 3.6 nM.

In the case of `CC[C@H](C)[C@H](NC(=O)[C@H](CCCNC(=N)N)NC(=O)[C@H](CC(=O)O)NC(=O)[C@@H](NC(=O)[C@H](CCCCN)NC(=O)Cc1ccc(NC(=O)Cc2ccc3ccccc3c2)cc1)[C@@H](C)CC)C(N)=O` [AP800] ({Acetyl(2-naphthyl)}-[X1]KIDRI-NH2), the “Ki(app)” value came out at 2.90 nM.

As for `CC[C@H](C)[C@H](NC(=O)[C@H](CCCNC(=N)N)NC(=O)[C@H](CC(=O)O)NC(=O)[C@@H](NC(=O)[C@H](CCCCNC(C)=O)NC(=O)Cc1ccc(NC(=O)COc2ccc3ccccc3c2)cc1)[C@@H](C)CC)C(N)=O` [AP801] ({Acetyl(2-naphthyloxy)}-[X1]K(Ac)IDRI-NH2), the “Ki(app)” value is recorded as 3.95 nM.

Regarding `CC[C@H](C)[C@H](NC(=O)[C@H](CCCNC(=N)N)NC(=O)[C@H](CC(=O)O)NC(=O)[C@@H](NC(=O)[C@H](CCCCN)NC(=O)Cc1ccc(NC(=O)c2ccc3ccccc3c2)cc1)[C@@H](C)CC)C(N)=O` [AP802] (2Naphthoyl-[X1]KIDRI-NH2), the “Ki(app)” value was found to be 8.7 nM.

On to `CC[C@H](C)[C@H](NC(=O)[C@H](CCCNC(=N)N)NC(=O)[C@H](CC(=O)O)NC(=O)[C@@H](NC[C@H](CCCCN)NC(=O)Cc1ccc(NC(=O)Cc2ccc3ccccc3c2)cc1)[C@@H](C)CC)C(N)=O` [AP806], for which the “Ki(app)” value is on record as 14.0 nM.

In the case of `CC[C@H](C)[C@H](NC[C@H](CCCCN)NC(=O)[C@H](CC(=O)O)NC(=O)[C@@H](NC(=O)[C@H](CCCNC(=N)N)NC(=O)Cc1ccc(NC(=O)Cc2ccc3ccccc3c2)cc1)[C@@H](C)CC)C(N)=O` [AP807], the “Ki(app)” value is 112 nM.

On to `CC[C@H](C)[C@H](NC(=O)[C@H](CCCNC(=N)N)NC(=O)[C@H](CC(=O)O)NC(=O)[C@@H](NC[C@H](CCCCN)NC(=O)Cc1ccc(NC(=O)COc2ccc3ccccc3c2)cc1)[C@@H](C)CC)C(N)=O` [AP808], for which the “Ki(app)” value stood at 98.9 nM.

`CC[C@H](C)[C@H](NC(=O)[C@H](CCCNC(=N)N)NC(=O)[C@H](CC(=O)O)NC(=O)[C@@H](NC[C@H](CCCCN)NC(=O)Cc1ccc(NC(=O)c2ccc3ccccc3c2)cc1)[C@@H](C)CC)C(N)=O` [AP809]: the “Ki(app)” value is 14.7 nM.

With `CC[C@H](C)CNC(=O)[C@H](CCCNC(=N)N)NC(=O)[C@H](CC(=O)O)NC(=O)[C@@H](NC(=O)[C@H](CCCNC(=N)N)NC(=O)C1CCN(C(=O)COc2ccc3ccccc3c2)CC1)[C@@H](C)CC` [AP810] ({Acetyl(2-naphthyloxy)-Inp}-RIDR-{NH(2S-methylbutyl)}), the “Ki(app)” value came out at 14.1 nM.

On to `CC[C@H](C)CNC(=O)[C@H](CCCNC(=N)N)NC(=O)[C@H](CC(=O)O)NC(=O)[C@@H](NC(=O)[C@H](CCCNC(=N)N)NC(=O)Cc1ccc(NC(=O)c2ccc3ccccc3c2)cc1)[C@@H](C)CC` [AP811] (2Naphthoyl-[X1]RIDR-{NH(2S-methylbutyl)}), for which the “Ki(app)” value is 2.52 nM.

On to `CC[C@H](C)CNC(=O)[C@H](CCCNC(=N)N)NC(=O)[C@H](CC(=O)O)NC(=O)[C@@H](NC(=O)[C@H](CCCNC(=N)N)NCC1CCN(C(=O)COc2ccc3ccccc3c2)CC1)[C@@H](C)CC` [AP812], for which the “Ki(app)” value was 32.0 nM.

In the case of `CC[C@H](C)CNC(=O)[C@H](CCCNC(=N)N)NC(=O)[C@H](CC(=O)O)NC(=O)[C@@H](NC(=O)[C@H](CCCNC(=N)N)NC(=O)Cc1ccc(NC(=O)COc2ccc3ccccc3c2)cc1)[C@@H](C)CC` [AP813] ({Acetyl(2-naphthyloxy)}-[X1]RIDR-{NH(2S-methylbutyl)}), the “Ki(app)” value turned out to be 56.0 nM.

With `CC[C@H](C)CNC(=O)[C@H](CCCNC(=N)N)NC(=O)[C@H](CC(=O)O)NC(=O)[C@@H](NC[C@H](CCCCN)NC(=O)Cc1ccc(NC(=O)c2ccc3ccccc3c2)cc1)[C@@H](C)CC` [AP814], the “Ki(app)” value was 33.0 nM.

For the compound `CC[C@H](C)[C@H](NC(=O)[C@H](CCCNC(=N)N)NC(=O)[C@H](CC(=O)O)NC(=O)[C@@H](NC(=O)[C@H](CCCN)NC(=O)Cc1ccc(NC(=O)COc2ccc3ccccc3c2)cc1)[C@@H](C)CC)C(N)=O` [AP815] ({Acetyl(2-naphthyloxy)}-[X1][Orn]IDRI-NH2), the “Ki(app)” value is 10.0 nM.

With `CC[C@H](C)[C@H](NC(=O)[C@H](CCCNC(=N)N)NC(=O)[C@H](CC(=O)O)NC(=O)[C@@H](NC(=O)[C@H](CCCNC(=N)N)NCCc1ccc(NC(=O)COc2ccc3ccccc3c2)cc1)[C@@H](C)CC)C(N)=O` [AP816] (H-[X2](Acetyl(2-naphthyloxy))IDRI-NH2), the “Ki(app)” value was found to be 17.4 nM.

`CC[C@H](C)[C@H](NC(=O)[C@H](CCCNC(=N)N)NC(=O)[C@H](CC(=O)O)NC(=O)[C@@H](NC(=O)[C@H](CCCNC(=N)N)NC(=O)Cc1ccc(NC(=O)C(Cl)c2ccccc2)cc1)[C@@H](C)CC)C(N)=O` (stereo partly shown) [AP817] (X9-[X1]RIDRI-NH2): the “Ki(app)” value was 21.1 nM.
